Experimental data: US11584747B2, “Substituted pyridopyrimidinonyl compounds useful as T cell activators” (BRISTOL-MYERS SQUIBB COMPANY, priority 2019, dated 2023)

Assays:
human DGKα = human DGKα (Homo sapiens (Human), UniProt P23743); test: DGKα ADPGLO assay (detergent/lipid micelle substrate); type: biochemical; conditions: ADPGLO assay; read-out: DGK alpha ADPGLO IC50
Experimental: DGK Alpha ADPGLO (Truncated) IC50 (uM)
The detergent/lipid micelle was prepared by combining 15 g phosphatidylserine (Avanti 840035P) and 1 g diacylglycerol (8008110) and dissolving into 150 mL chloroform in a 2 L round bottom flask. Chloroform was removed under high vacuum by rotary evaporation. […] The lipid/detergent solution was split into 5 mL aliquots and stored at −80° C.

whole blood (pERK) = test: pERK Whole Blood; type: cell-based
human DGKζ = human DGKζ (Homo sapiens (Human), UniProt Q13574); test: DGKζ LIPGLO assay (extruded liposome substrate, ADP-Glo luminescence); type: biochemical; conditions: liposome (LIPGLO) assay; read-out: DGK zeta (liposome assay) IC50
Chain of human DGKζ (Q13574 other isoform, or with tags, fused parts or gaps): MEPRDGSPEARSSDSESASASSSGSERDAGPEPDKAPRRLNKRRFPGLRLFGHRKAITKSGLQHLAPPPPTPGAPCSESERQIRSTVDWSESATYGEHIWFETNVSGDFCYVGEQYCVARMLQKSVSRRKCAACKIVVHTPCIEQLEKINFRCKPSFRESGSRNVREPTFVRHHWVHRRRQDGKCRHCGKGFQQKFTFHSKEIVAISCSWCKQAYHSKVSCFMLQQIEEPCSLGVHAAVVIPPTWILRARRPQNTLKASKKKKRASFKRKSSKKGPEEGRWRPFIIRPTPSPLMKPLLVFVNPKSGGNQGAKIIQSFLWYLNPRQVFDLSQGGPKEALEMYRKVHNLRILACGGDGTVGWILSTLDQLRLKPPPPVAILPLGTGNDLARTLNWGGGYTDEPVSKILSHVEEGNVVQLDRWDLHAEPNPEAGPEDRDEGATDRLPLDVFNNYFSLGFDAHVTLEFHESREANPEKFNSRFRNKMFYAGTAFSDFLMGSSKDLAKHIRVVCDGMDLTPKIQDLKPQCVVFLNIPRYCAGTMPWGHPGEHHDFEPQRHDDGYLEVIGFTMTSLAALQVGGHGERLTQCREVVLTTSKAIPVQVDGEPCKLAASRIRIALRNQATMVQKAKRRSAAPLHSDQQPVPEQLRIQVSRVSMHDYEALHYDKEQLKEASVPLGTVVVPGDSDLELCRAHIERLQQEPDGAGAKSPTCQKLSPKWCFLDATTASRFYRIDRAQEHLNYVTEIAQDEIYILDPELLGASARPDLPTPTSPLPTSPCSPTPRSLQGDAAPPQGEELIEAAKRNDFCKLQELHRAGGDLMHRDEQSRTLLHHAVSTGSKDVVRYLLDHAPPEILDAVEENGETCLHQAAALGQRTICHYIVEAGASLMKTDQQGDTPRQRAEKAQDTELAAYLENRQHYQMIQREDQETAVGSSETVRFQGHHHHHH

Chain of human DGKα (P23743 whole entry, looked up, the tested form may be a part): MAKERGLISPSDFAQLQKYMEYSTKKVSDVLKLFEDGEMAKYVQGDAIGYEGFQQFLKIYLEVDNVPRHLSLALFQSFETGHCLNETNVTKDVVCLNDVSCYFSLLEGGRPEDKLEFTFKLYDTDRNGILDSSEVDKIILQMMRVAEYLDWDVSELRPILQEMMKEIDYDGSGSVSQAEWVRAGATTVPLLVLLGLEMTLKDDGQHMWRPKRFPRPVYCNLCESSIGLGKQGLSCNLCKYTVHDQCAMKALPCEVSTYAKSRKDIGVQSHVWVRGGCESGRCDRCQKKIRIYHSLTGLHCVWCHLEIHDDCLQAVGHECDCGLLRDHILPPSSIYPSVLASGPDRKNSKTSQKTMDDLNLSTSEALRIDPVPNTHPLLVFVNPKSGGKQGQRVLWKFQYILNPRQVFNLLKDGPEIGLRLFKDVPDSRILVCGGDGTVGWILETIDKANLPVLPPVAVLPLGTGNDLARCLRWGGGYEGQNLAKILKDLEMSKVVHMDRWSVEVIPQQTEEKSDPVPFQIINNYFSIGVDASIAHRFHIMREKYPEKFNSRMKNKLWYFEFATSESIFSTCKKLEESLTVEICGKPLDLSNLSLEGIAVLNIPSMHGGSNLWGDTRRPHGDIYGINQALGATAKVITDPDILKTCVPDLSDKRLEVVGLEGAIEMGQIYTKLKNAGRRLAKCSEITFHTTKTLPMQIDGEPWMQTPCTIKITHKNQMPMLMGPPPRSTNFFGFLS

Row | Compound | IC50 (human DGKα) | EC50 (whole blood (pERK)) | IC50 (human DGKζ)
1 | CCOC[C@@H]1CN(c2nc(=O)n(C)c3ccc(C#N)nc23)[C@@H](C)CN1C(CC)c1ccc(C(F)(F)F)cc1 (stereo partly drawn) [Example 401, 4-((2S,5S)-5-(ethoxymethyl)-2-methyl-4-(1-(4-(trifluoromethyl)phenyl)propyl)piperazin-1-yl)-1-methyl-2-oxo-1,2-dihydropyrido[3,2-d]pyrimidine-6-carbonitrile] | 160 nM | 4890 nM | 230 nM
2 | CCC(c1ccc(OCCC2CC2)cc1)N1C[C@H](C)N(c2nc(=O)n(C)c3ccc(C#N)nc23)C[C@H]1CC (stereo partly drawn) [Example 339, 4-((2S,5R)-4-(1-(4-(2-cyclopropylethoxy)phenyl)propyl)-5-ethyl-2-methylpiperazin-1-yl)-1-methyl-2-oxo-1,2-dihydropyrido[3,2-d]pyrimidine-6-carbonitrile] | 75 nM | 280 nM | 79 nM
3 | CC[C@@H]1CN(c2nc(=O)n(C)c3ccc(C#N)nc23)[C@@H](C)CN1C(c1ccc(OC)cc1)C(C)C (stereo partly drawn) [Example 314, 4-((2S,5R)-5-ethyl-4-(1-(4-methoxyphenyl)-2-methylpropyl)-2-methylpiperazin-1-yl)-1-methyl-2-oxo-1,2-dihydropyrido[3,2-d]pyrimidine-6-carbonitrile] | 25 nM | 50 nM | 4 nM
4 | CC(c1ccc(CN2CC3(COC3)C2)cc1)N1C[C@H](C)N(c2nc(=O)n(C)c3ccc(C#N)nc23)C[C@H]1C (stereo partly drawn) [Example 393, 4-((2S,5R)-4-(1-(4-((2-oxa-6-azaspiro[3.3]heptan-6-yl)methyl)phenyl)ethyl)-2,5-dimethylpiperazin-1-yl)-1-methyl-2-oxo-1,2-dihydropyrido[3,2-d]pyrimidine-6-carbonitrile] | 23500 nM | 3450 nM | 125000 nM
5 | CC[C@H]1CN(C(C)c2ccc(C(F)(F)F)cc2)[C@H](CC)CN1c1nc(=O)n(C)c2ccc(OC(F)F)nc12 (stereo partly drawn) [Example 445, 4-((2S,5R)-2,5-Diethyl-4-(1-(4-(trifluoromethyl)phenyl)ethyl)piperazin-1-yl)-6-(difluoromethoxy)-1-methylpyrido[3,2-d]pyrimidin-2(1H)-one] | 950 nM | 9590 nM | 2210 nM
6 | CC(c1ccc(CN2CC3(COC3)C2)cc1)N1C[C@H](C)N(c2nc(=O)n(C)c3ccc(C#N)nc23)C[C@H]1C (stereo partly drawn) [Example 392, 4-((2S,5R)-4-(1-(4-((2-oxa-6-azaspiro[3.3]heptan-6-yl)methyl)phenyl)ethyl)-2,5-dimethylpiperazin-1-yl)-1-methyl-2-oxo-1,2-dihydropyrido[3,2-d]pyrimidine-6-carbonitrile] | 2840 nM | 6890 nM | 33600 nM
7 | CCC(N1C[C@H](C)N(c2nc(=O)n(C)c3ccc(C#N)nc23)C[C@H]1C)C12CC(C(F)(F)F)(C1)C2 (stereo partly drawn) [Example 447, 4-((2S,5R)-2,5-dimethyl-4-(1-(3-(trifluoromethyl)bicyclo[1.1.1]pentan-1-yl)propyl)piperazin-1-yl)-1-methyl-2-oxo-1,2-dihydropyrido[3,2-d]pyrimidine-6-carbonitrile] | 13600 nM | 20000 nM | 5570 nM
8 | CCC(c1ccc(OCC2COC2)cc1)N1C[C@H](C)N(c2nc(=O)n(C)c3ccc(C#N)nc23)C[C@H]1CC (stereo partly drawn) [Example 342, 4-((2S,5R)-5-ethyl-2-methyl-4-(1-(4-(oxetan-3-ylmethoxy)phenyl)propyl)piperazin-1-yl)-1-methyl-2-oxo-1,2-dihydropyrido[3,2-d]pyrimidine-6-carbonitrile] | 1090 nM | 7930 nM | 1200 nM
9 | CC[C@@H]1CN(c2nc(=O)n(C)c3ccc(C#N)nc23)[C@@H](C)CN1C(C)c1ccc(C2CCOCC2)cc1 (stereo partly drawn) [Example 329, 4-((2 S,5R)-5-ethyl-2-methyl-4-(1-(4-(tetrahydro-2H-pyran-4-yl)phenyl)ethyl)piperazin-1-yl)-1-methyl-2-oxo-1,2-dihydropyrido[3,2-d]pyrimidine-6-carbonitrile] | 5290 nM | 1560 nM | 740 nM
10 | CCC(c1ccc(OCC2CCOCC2)cc1)N1C[C@H](C)N(c2nc(=O)n(C)c3ccc(C#N)nc23)C[C@H]1CC (stereo partly drawn) [Example 337, 4-((2S,5R)-5-ethyl-2-methyl-4-(1-(4-((tetrahydro-2H-pyran-4-yl)methoxy)phenyl)propyl)piperazin-1-yl)-1-methyl-2-oxo-1,2-dihydropyrido[3,2-d]pyrimidine-6-carbonitrile] | 81 nM | 54 nM | 100 nM
11 | CC[C@@H]1CN(c2nc(=O)n(C)c3ccc(C(F)F)nc23)[C@@H](C)CN1C(C)c1ccc(C(F)(F)F)cc1 (stereo partly drawn) [Example 441, 6-(difluoromethyl)-4-((2S,5R)-5-ethyl-2-methyl-4-(1-(4-(trifluoromethyl)phenyl)ethyl)piperazin-1-yl)-1-methylpyrido[3,2-d]pyrimidin-2(1H)-one] | 190 nM | 700 nM | 26900 nM
12 | CCC(c1ccc(OCC2CN(C)C2)cc1)N1C[C@H](C)N(c2nc(=O)n(C)c3ccc(C#N)nc23)C[C@H]1CC (stereo partly drawn) [Example 344, 4-((2 S, 5R)-5-ethyl-2-methyl-4-(1-(4-((1-methylazetidin-3-yl)methoxy)phenyl)propyl)piperazin-1-yl)-1-methyl-2-oxo-1,2-dihydropyrido[3,2-d]pyrimidine-6-carbonitrile] | 10100 nM | 20000 nM | 17100 nM
13 | COC[C@H]1CN(C(C)c2ccc(C(F)(F)F)cc2)[C@H](C)CN1c1nc(=O)n(C)c2ccc(C#N)nc12 (single isomer, unassigned) [Example 409] | 72 nM | 20000 nM | 1080 nM
14 | CCC(c1ccc(OCc2nccs2)cc1)N1C[C@H](C)N(c2nc(=O)n(C)c3ccc(C#N)nc23)C[C@H]1CC (stereo partly drawn) [Example 347, 4-((2S,5R)-5-ethyl-2-methyl-4-(1-(4-(thiazol-2-ylmethoxy)phenyl)propyl)piperazin-1-yl)-1-methyl-2-oxo-1,2-dihydropyrido[3,2-d]pyrimidine-6-carbonitrile] | 320 nM | 1990 nM | 950 nM
15 | CCOc1ccc(C(CC)N2C[C@H](C)N(c3nc(=O)n(C)c4ccc(C#N)nc34)C[C@H]2CC)cc1 (stereo partly drawn) [Example 306, 4-((2S,5R)-4-(1-(4-ethoxyphenyl)propyl)-5-ethyl-2-methylpiperazin-1-yl)-1-methyl-2-oxo-1,2-dihydropyrido[3,2-d]pyrimidine-6-carbonitrile] | 11 nM | 230 nM | 28 nM
16 | CC[C@@H]1CN(c2nc(=O)n(C)c3ccc(C#N)nc23)[C@@H](CO)CN1C(C)c1ccc(C(F)(F)F)cc1 (single isomer, unassigned) [Example 411] | 820 nM | 1890 nM | 1240 nM
17 | CCC(c1ccc(C(F)(F)F)cc1)N1C[C@H](C)N(c2nc(=O)n(C)c3ccc(C#N)nc23)C[C@H]1COC (single isomer, unassigned) [Example 399] | 160 nM | 20000 nM | 700 nM
18 | CCC1CN(c2nc(=O)n(C)c3ccc(C#N)nc23)[C@@H](C)CN1C(C)c1ccc(C(F)(F)F)c(CN2CCOCC2)c1 (single isomer, unassigned) [Example 350] | 180 nM | 3360 nM | 120 nM
